One data set relates to Rat hepatocytes. Description: MTT toxicity experiment in 96-well plates, rat hepatocytes. Type of data set: cell-based. As to the method: (§1) Toxicity experiments were performed in 96-well plates. Briefly, 96-well plates were coated with 50 μg/mL fibronectin for 1 hour at 37° C. Freshly isolated rat hepatocytes and MCF-7 cells were seeded at 50,000 cells/well in 100 μL of media and incubated overnight at 37° C., 10% CO2. Hepatocytes were seeded in hepatocyte maintenance media while MCF-7 cells were seeded in DMEM. Media was replaced and cells were exposed to tegafur or 5-FU+Uracil in Williams E media at 37° C., 10% CO2. Uracil concentration was maintained at 100 μM, while 5-FU concentration varied. After 24 hours of exposure, media were removed and cells were incubated with 0.5 mg/mL MTT reagent for 2 hours. Media were removed from the wells and 100 μL DMSO was added to each well and mixed on a shaker for 10 minutes. The absorbance was measured at 570 nm and IC-50 values were obtained using Sigmaplot software with a sigmoidal 4-parameter fit.

The subject of another data set is MCF-7 cells. Description: MTT toxicity experiment in 96-well plates, MCF-7. Format: cell-based, human. On the procedure: as §1
The subject of data set [1] is MCF-7 cells co-cultured with rat primary hepatocytes. Description: LDH release, hepatocyte/MCF-7 co-culture in two-chamber microfluidic device. Type of data set: cell-based, human. To be noted: MCF-7 exposure to 5-FU produced by metabolic conversion of tegafur, 24 hours. An excerpt:
Rat primary hepatocytes and human breast cancer cells (MCF-7) were co-cultured in the device of Example 1 to create a hepatocyte-cancer model for drug screening. In the two-chamber device, intercellular communication between hepatocytes and cancer cells is achieved without any flow within the devices. In the two-chamber device, both cell types were independently seeded into their respective chambers in the device using inlet ports on fibronectin-coated devices. Rat primary hepatocytes and MCF-7 cells were seeded into the first (bottom) and second (top) chambers, respectively. Control monocultures were seeded in a single chamber device. The co-culture model created provides a microenvironment with cells cultured in close proximity and relatively small volume. Co-culture of hepatocytes and MCF-7 cells was compared in 12-well plates against a two-chamber device. […]
LDH in the supernatant was evaluated using CytoTox 96 Non-Radioactive Cytotoxicity Assay (Promega Cat No. G1780). […]
At the end of incubation, 50 μL stop solution was added and absorbance measured at 490 nm.
LDH from culture supernatant is normalized as LDH from cultures exposed to 100 μM tegafur+100 μM uracil to LDH from cultures exposed to vehicle control. […] Percentage cell death was calculated as LDH in media/LDH in 10,000 MCF-7 cells.
For orientation: LDH leaks from cells whose membrane has failed.

The test system of data set [2] is rat primary hepatocytes. To be noted: 24 h, 100 μM.
Excerpt: (§2) Tegafur, 5-FU, and Uracil concentrations in media were quantified using an LC/MS-MS 3200 QTRAP Hybrid Triple Quadrupole Linear Ion Trap mass spectrometer (AB SCIEX, Foster City, Calif.) coupled to a 1200 Series Binary LC System (Agilent Technologies, Santa Clara, Calif.). A standard solution of each analyte was directly infused into the mass spectrometer, which was operating under negative mode with the following settings: Curtain gas (CUR) at 30.0, collision gas (CAD) at 5, IonSpray Voltage (IS) at −4500.0, the temperature (TEM) of the turbo gas in the TurbolonSpray at 400° C. and both Ion Source Gases (GS1 and GS2) at 60.0. Using Analyst software (Version 1.5, AB Sciex), a ‘Compound Optimization’ routine was performed to identify multiple reaction monitoring (MRM) precursor/product ion transition pairs for each analyte that maximizes peak intensity. The tunable MS-specific parameters for the optimization were the declustering potential (DP), the entrance potential (EP), the collision energy (CE), as well as the collision cell exit potential (CXP).
(§3) MS data acquisition for each sample was achieved by injecting 10 μL, of media through a liquid chromatographic (LC) separation phase followed by simultaneous detection of all three MRM transitions, each with a dwell time of 500 ms. The LC method utilized a Synergy Hydro-RP (reverse phase) column (150 mm×2 mm inner 4 μm 80 Å particles; Phenomenex, Torrance, Calif.), which was kept at ambient temperature. The aqueous mobile phase A was HPLC grade water with 0.1% formic acid and the organic phase B was HPLC grade methanol with 0.1% formic acid. The elution gradient was set as: 0 minutes-3% B, 3 minutes-3% B, 12 minutes-95% B, 15 minutes-95% B, 18 minutes-3% B, and 25 minutes-3% B.
The conditions of data set [3]: cited from earlier work; for Cmax: oral uptake of tegafur-uracil (UFT).
The test system of data set [4] is rat primary hepatocytes. Kind of data set: Mass spectrometry of drug metabolism in single chamber device with hepatocytes alone. To be noted: from tegafur+uracil.
Excerpt: as §2, §3
[5] abbreviates: 100 μM, inferred from IC-50 values.

As a reminder, the IC50 is the concentration needed to halve the response being measured. Low readings indicate higher potency, high ones lower potency. Usually Cmax stands for the highest concentration seen after dosing. As to `O=c1[nH]c(=O)n(C2CCCO2)cc1F` (stereo not drawn) [Tegafur], the “toxicity to hepatocytes at 100 μM” value in the data set on Rat hepatocytes (setting [5]) is given as “not toxic”. For the same compound, the IC50 was greater than 1200 µM in the data set with Rat hepatocytes (Hepatocyte, rat hepatocytes, 24 hours exposure, MTT, uracil 100 μM where present) and 340 µM with MCF-7 cells (Homo sapiens, MCF7, MCF-7, 24 hours exposure, MTT, uracil 100 μM where present). Moreover, the “toxicity to MCF-7 cells at 100 μM” value in the data set on MCF-7 cells (setting [5]) is recorded as “not toxic”. The “MCF-7 cell death (LDH in media/LDH in 10,000 MCF-7 cells)” value in data set [1] is 12.4±1.6%. Besides, the “decrease of concentration within the media” value in the data set on rat primary hepatocytes [2] is given as roughly 75%. The Cmax in data set [3] (human) was 31.2 µM.

For the compound `O=c1[nH]cc(F)c(=O)[nH]1` [5-FU, 5-fluorouracil], the “half-life in circulation in the human body” value in data set [3] was 30 min. In data set [3] (human), the “fraction of 5-FU produced cleared by DPD activity” value is listed as roughly 80% and the Cmax was 0.847 µM. Further, the “temporal profile of 5-FU production” value in the data set on rat primary hepatocytes [4] is “increase in production up to 8 hours and a subsequent decrease”.

As for `O=c1cc[nH]c(=O)[nH]1` [uracil, Uracil], the “decrease of concentration within the media” value in the data set on rat primary hepatocytes [2] is roughly 75%.

Source of the values: patent publication US20170307595A1, “METHODS AND DEVICES TO STUDY METABOLISM” (The General Hospital Corporation, priority 2014, published 2017).
